Consider three molecules from US8906832B2, “Quantitative analysis of carbohydrate-protein interactions using glycan microarrays: determination of surface and solution dissociation constants” (Academia Sinica, priority 2008, dated 2014).

Where two headings read alike, the source gives them in different places.

By Ki is commonly meant the equilibrium dissociation constant of an inhibitor or competing ligand from its target. In general, Kd refers to the concentration at which binding is half-saturated.

Assay [1] addresses T1, Con A (Canavalia ensiformis, UniProt P02866).
T1 construct: purchased Sigma
Particulars: obtained by microcalorimetry; cited from earlier work.

The target of assay [2] is T1, Con A. Particulars: obtained by SPR; cited from earlier work.
Assay [3] addresses T1, Con A. As to the kind of experiment: Competitive binding assay on glycan microarray (solution KD / Ki).
Description: The solution equilibrium dissociation constant (KD) for carbohydrate-lectin interactions can be determined using microarrays in a competitive assay. […] In a competitive binding experiment, carbohydrates in solution compete with immobilized carbohydrate ligands for the binding sites on the lectin, establishing a coupled equilibrium between the binding of protein to the immobilized species and to the species present in solution. Using array imaging signals, the unbound protein concentration [P] can be obtained via Langmuir isotherms (eq 1). Once the concentration of P has been measured, it is possible to determine the KD using eq 2, which is derived from the multivalent Scatchard formula (see the Experimental Section for the derivation of eq 2)
where [Lo] is ligand (carbohydrate) concentration applied to the system, and KD is the solution equilibrium dissociation constant. […] Binding curves, representing different concentrations of competitors were obtained as the function of FITC-Con A concentrations and fluorescence intensities from the Man8 surface (FIG. 4a). The data was analyzed according to eq 2, to afford apparent KD values, which were then replotted against competitor concentration to afford the solution KD values (FIG. 4b). […]
ArrayVision 8.0 (Applied Precision) was used for the fluorescence analysis and extraction of data. […]
For the next assay, the target named is T2, lectins or antibodies (Lens culinaris, UniProt P02870).
T2 construct: purchased Sigma
T2 sequence (P02870 31-210 limits assumed): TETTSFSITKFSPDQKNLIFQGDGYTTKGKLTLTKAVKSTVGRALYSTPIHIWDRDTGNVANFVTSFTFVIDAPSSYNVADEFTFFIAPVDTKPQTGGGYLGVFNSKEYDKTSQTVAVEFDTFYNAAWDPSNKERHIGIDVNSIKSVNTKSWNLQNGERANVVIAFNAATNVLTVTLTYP
T2 sequence (P02870 218-269 limits assumed): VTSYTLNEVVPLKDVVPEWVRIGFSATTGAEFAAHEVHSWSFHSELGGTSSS
Briefly: Direct binding on glycan microarray, lectin or antibody not named. Particulars: binding protein not given. From the text: Prior studies of carbohydrate-protein interactions have used a threshold-based, one-step qualitative analysis i.e. interaction or non-interaction. The threshold varies from one carbohydrate to another and is based on how well the carbohydrate behaves in the assay. Even when closely related glycans are studied under ideal conditions, they vary with respect to the surface density of active carbohydrates. Since the intensity of a spot depends both on KD,surf (which results from binding affinity), and Fmax (which results from surface active carbohydrate density and protein binding), the information obtained by probing an array with a single concentration of analytes may not be accurate.

As for `COC1OC(CO)C(O)C(O)C1O` (stereo not drawn) [a-MeGlc, α-methyl glucose], at Con A [1], the Ki was 520 µM.

In the case of `COC1OC(CO)C(O)C(O)C1O` (stereo not drawn) [a-MeMan, α-methyl mannose], the results for the Ki at Con A [2] and at Con A [1] were 92 µM and 120 µM, respectively. Also, at Con A [3] (inhibitors in solution, Con A), the “relative affinity KD (a-MeGlc)/KD (a-MeMan)” value is reported as 4.3.

Man9: the “Fmax (maximal fluorescence intensity)” value at lectins or antibodies amounted to 25780. Besides, at lectins or antibodies (read-out: KD (dissociation constant, surface)), the Kd came out at 0.335 µM. Moreover, the “fold stronger than Man1 in binding to Con A” value on Con A [3] (from solution KD values) is “more than 10^3 fold”.
